In US20230357179A1, “RAF KINASE INHIBITORS AND METHODS OF USE THEREOF” (Deciphera Pharmaceuticals, LLC, priority 2021, published 2023):

Columns and labels:
C-Raf kinase = molecular target: T1, C-Raf kinase (Homo sapiens, UniProt P04049, Y340D/Y341D); test: Biochemical assay for C-Raf.1 (coupled pyruvate kinase/lactate dehydrogenase); details: read-out: CRAF.1 IC50
T1 construct: Y340D,; GST (N); purchased Sigma
Procedure: Biochemical Assay for C-Raf.1
(§1) Activity of C-Raf kinase (SEQ. ID NO: 3) was determined spectroscopically using a coupled pyruvate kinase/lactate dehydrogenase assay that continuously monitors the ATP hydrolysis-dependent oxidation of NADH (e.g., Schindler et al., Science, 2000, 289, 1938-1942). Assays were conducted in 384-well plates (100 μL final volume) using 0.43 nM C-Raf (Sigma), 1.5 units pyruvate kinase, 2.1 units lactate dehydrogenase, 1 mM phosphoenol pyruvate, 0.28 mM NADH, 30.1 nM MEK (SignalChem), and 1 mM ATP in assay buffer (100 mM Tris, pH 7.5, 15 mM MgCl2, 0.5 mM DTT, 0.1% octyl-glucoside, 0.002% (w/v) BSA, and 0.002% Triton X-100). Inhibition of C-Raf was measured by adding serial diluted test compound (final assay concentration of 1% DMSO). A decrease in absorption at 340 nm was monitored continuously for 6 h at 30° C. on a multi-mode microplate reader (BioTek). The reaction rate was calculated using the 4 to 5 h time frame. The reaction rate at each concentration of compound was converted to percent inhibition using controls (i.e., reaction with no test compound and reaction with a known inhibitor) and IC50 values were calculated by fitting a four-parameter sigmoidal curve to the data using Prism (GraphPad software).

Miapaca-2 cells = test: MiaPaca-2 cell proliferation assay (1), resazurin, 96-well; format: cell-based; details: Homo sapiens, MIA PaCa-2, inhibition of cell proliferation
Procedure: MiaPaca-2 Cell Proliferation Assay (1)
Miapaca-2 cells (catalog #CRL-1420) are obtained from the American Type Culture Collect (ATTC, Manassas, VA). Briefly, cells were grown in DMEM supplemented with 10% characterized fetal bovine serum (Invitrogen, Carlsbad, CA), 2.5% New Zealand sourced horse serum and 1% Penicillin/Streptomycin/L-Glutamine at 37° C., 5% CO2, and 95% humidity. Cells are expanded until reaching 70-95% confluency at which point they are subcultured or harvested for assay use. A serial dilution of test compound is dispensed into a 96-well black clear bottom plate in triplicate. Three thousand cells are added per well in 200 μL complete growth medium in the 96-well plate. Plates are incubated for 67-72 hours at 37° C., 5% CO2, and 95% humidity. At the end of the incubation, 40 μL of a 440 μM solution of resazurin (Sigma, St. Louis, MO) in PBS is added to each well of the plate and plates are incubated for an additional 5-6 hours at 37° C., 5% CO2, and 95% humidity. Plates are read on a Synergy2 or equivalent reader (Biotek, Winooski VT) using an excitation of 540 nm and an emission of 600 nm. Data is analyzed using Prism software (GraphPad, San Diego, CA) to calculate IC50 values.

A-Raf kinase = molecular target: T2, A-Raf kinase (Homo sapiens, UniProt P10398, Y301D/Y302D); test: Biochemical assay for A-Raf.1 (coupled pyruvate kinase/lactate dehydrogenase); details: read-out: ARAF.1 IC50
T2 construct: purchased Sigma
Procedure: Biochemical assay for A-Raf.1
as §1, with “A-Raf” for “C-Raf”, “NO. 1)” for “NO: 3)”, “5.55” for “0.43”

B-Raf kinase = molecular target: T3, B-Raf kinase (Homo sapiens, UniProt P15056); test: Biochemical assay for B-Raf.1 (coupled pyruvate kinase/lactate dehydrogenase); details: read-out: BRAF.1 IC50
T3 construct: GST (N); purchased Sigma
Procedure: Biochemical Assay for B-Raf.1
as §1, with “B-Raf” for “C-Raf”, “2)” for “3)”, “0.13” for “0.43”

B-Raf (V600E) kinase = molecular target: T4, B-Raf (V600E) kinase (Homo sapiens, UniProt P15056, V600E); test: Biochemical assay for B-Raf (V600E).1 (coupled pyruvate kinase/lactate dehydrogenase); details: read-out: BRAF V600E.1 IC50
T4 construct: B-Raf (V600E) residues 416-766 with a; GST (N); purchased SignalChem
Procedure: Biochemical Assay for B-Raf (V600E).1
Activity of B-Raf (V600E) (SEQ. ID NO: 4) kinase was determined spectroscopically using a coupled pyruvate kinase/lactate dehydrogenase assay that continuously monitors the ATP hydrolysis-dependent oxidation of NADH (e.g., Schindler et al., Science, 2000, 289, 1938-1942). Assays were conducted in 384-well plates (100 μL final volume) using 0.03 nM B-Raf (SignalChem), 1.5 units pyruvate kinase, 2.1 units lactate dehydrogenase, 1 mM phosphoenol pyruvate, 0.28 mM NADH, 30.1 nM MEK (SignalChem), and 1 mM ATP in assay buffer (100 mM Tris, pH 7.5, 15 mM MgCl2, 0.5 mM DTT, 0.1% octyl-glucoside, 0.002% (w/v) BSA, and 0.002% Triton X-100). Inhibition of B-Raf (V600E) was measured by adding serial diluted test compound (final assay concentration of 1% DMSO). A decrease in absorption at 340 nm was monitored continuously for 6 h at 30° C. on a multi-mode microplate reader (BioTek). The reaction rate was calculated using the 3 to 4 h time frame. The reaction rate at each concentration of compound was converted to percent inhibition using controls (i.e., reaction with no test compound and reaction with a known inhibitor) and IC50 values were calculated by fitting a four-parameter sigmoidal curve to the data using Prism (GraphPad software).

A375 cells = test: A375 cell proliferation assay (1), resazurin, 96-well; format: cell-based; details: Homo sapiens, A-375, inhibition of cell proliferation
Procedure: A375 Cell Proliferation Assay (1)
A375 cells (catalog (#CRL-1619) are obtained from the American Type Culture Collect (ATTC, Manassas, VA). Briefly, cells were grown in DMEM High Glucose supplemented with 10% characterized fetal bovine serum (Invitrogen, Carlsbad, CA) and 1% Penicillin/Streptomycin/L-Glutamine at 37° C., 5% CO2, and 95% humidity. Cells are expanded until reaching 70-95% confluency at which point they are sub-cultured or harvested for assay use. A serial dilution of test compound is dispensed into a 96-well black clear bottom plate in triplicate. Two thousand five hundred cells are added per well in 200 μL complete growth medium in the 96-well plate. Plates are incubated for 67-72 hours at 37° C., 5% CO2, and 95% humidity. At the end of the incubation, 40 μL of a 440 μM solution of resazurin (Sigma, St. Louis, MO) in PBS is added to each well of the plate and plates are incubated for an additional 5-6 hours at 37° C., 5% CO2, and 95% humidity. Plates are read on a Synergy2 or equivalent reader (Biotek, Winooski VT) using an excitation of 540 nm and an emission of 600 nm. Data is analyzed using Prism software (GraphPad, San Diego, CA) to calculate IC50 values.

T2 sequence (P10398 with tags, fused parts or gaps Y301D/Y302D): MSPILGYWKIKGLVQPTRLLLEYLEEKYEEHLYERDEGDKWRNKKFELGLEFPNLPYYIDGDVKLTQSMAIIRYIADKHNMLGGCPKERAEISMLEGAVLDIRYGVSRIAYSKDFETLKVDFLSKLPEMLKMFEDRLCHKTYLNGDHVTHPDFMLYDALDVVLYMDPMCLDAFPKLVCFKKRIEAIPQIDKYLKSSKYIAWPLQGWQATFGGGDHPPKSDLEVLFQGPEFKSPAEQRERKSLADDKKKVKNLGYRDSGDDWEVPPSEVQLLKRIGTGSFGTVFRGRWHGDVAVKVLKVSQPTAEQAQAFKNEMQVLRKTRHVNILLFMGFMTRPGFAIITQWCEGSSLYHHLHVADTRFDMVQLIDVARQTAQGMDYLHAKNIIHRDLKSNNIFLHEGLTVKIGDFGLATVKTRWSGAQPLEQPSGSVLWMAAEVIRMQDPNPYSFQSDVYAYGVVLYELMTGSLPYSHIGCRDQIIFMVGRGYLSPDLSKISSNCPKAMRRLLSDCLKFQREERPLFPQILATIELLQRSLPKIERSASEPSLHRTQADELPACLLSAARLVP
T4 sequence (P15056 416-766 V600E): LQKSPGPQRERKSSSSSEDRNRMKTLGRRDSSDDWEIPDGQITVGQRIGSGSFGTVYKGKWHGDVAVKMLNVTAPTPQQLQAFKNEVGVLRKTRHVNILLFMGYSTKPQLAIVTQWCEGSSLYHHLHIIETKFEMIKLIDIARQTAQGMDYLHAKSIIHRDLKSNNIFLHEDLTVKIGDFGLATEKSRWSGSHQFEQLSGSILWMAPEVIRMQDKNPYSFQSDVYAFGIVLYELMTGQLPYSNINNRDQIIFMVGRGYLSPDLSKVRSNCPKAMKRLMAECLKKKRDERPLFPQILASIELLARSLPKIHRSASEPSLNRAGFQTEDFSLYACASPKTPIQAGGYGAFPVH
T1 sequence (P04049 307-648 Y340D/Y341D): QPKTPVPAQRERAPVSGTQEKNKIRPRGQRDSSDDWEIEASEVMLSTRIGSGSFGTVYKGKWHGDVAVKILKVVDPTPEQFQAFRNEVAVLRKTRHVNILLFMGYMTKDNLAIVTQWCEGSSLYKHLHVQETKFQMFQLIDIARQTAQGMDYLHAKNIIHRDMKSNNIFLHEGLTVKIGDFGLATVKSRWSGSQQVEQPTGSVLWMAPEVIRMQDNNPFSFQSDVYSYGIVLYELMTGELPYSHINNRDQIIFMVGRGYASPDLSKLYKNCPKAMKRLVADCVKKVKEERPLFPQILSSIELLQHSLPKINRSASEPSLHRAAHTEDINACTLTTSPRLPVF
T3 sequence (P15056 416-766): as the sequence (P15056 416-766 V600E) above, with E185V counted along it

Structure (SMILES)	IC50 (C-Raf kinase) [nM]	IC50 (Miapaca-2 cells) [nM]	IC50 (A-Raf kinase) [nM]	IC50 (B-Raf kinase) [nM]	IC50 (B-Raf (V600E) kinase) [nM]	IC50 (A375 cells) [nM]
Cc1ccc(NC(=O)Nc2cnn(CC(F)(F)F)c2)cc1-c1cc(OCCO)nc(N2CCOCC2)c1 [Example 45]	100 to 500	1000 to 10000	> 1000	> 1000	≤ 100	–
Cc1ccc(NC(=O)Nc2cnn(C(C)(C)C)c2)cc1-c1cc(OCCO)nc(N2CCOCC2)c1 [Example 44]	100 to 500	1000 to 10000	> 1000	100 to 500	≤ 100	–
CCNC(=O)Nc1cc(-c2cc(OCCO)nc(-c3ccnc(NC(=O)C4CC4)c3)c2)c(C)cc1F [Example 98]	≤ 100	–	> 1000	100 to 500	≤ 100	1000 to 10000
Cc1ccc(NC(=O)N[C@@H]2CCc3ccccc32)cc1-c1cc(OCCO)nc(N2CCOCC2)c1 [Example 15]	≤ 100	–	> 1000	100 to 500	≤ 100	1000 to 10000

Further lines, results first:

IC50 (C-Raf kinase) [nM]	IC50 (Miapaca-2 cells) [nM]	IC50 (A-Raf kinase) [nM]	IC50 (B-Raf kinase) [nM]	IC50 (B-Raf (V600E) kinase) [nM]	IC50 (A375 cells) [nM]	Structure (SMILES)
≤ 100	–	> 1000	≤ 100	≤ 100	1000 to 10000	Cc1cc(F)c(NC(=O)NC2CCC(F)(F)CC2)cc1-c1cc(-c2cnn(C)c2)nc(N2CCOCC2)c1 [Example 39]
≤ 100	–	> 1000	≤ 100	≤ 100	≤ 100	Cc1ccc(NC(=O)NCCC(C)(C)C)cc1-c1cc(N2CCOCC2)nc(N2CC(C)(O)C2)n1 [Example 1, 1-(3,3-dimethylbutyl)-3-(3-(2-(3-hydroxy-3-methylazetidin-1-yl)-6-morpholinopyrimidin-4-yl)-4-methylphenyl)urea]
500 to 1000	–	> 1000	> 1000	≤ 100	1000 to 10000	Cc1cc(F)c(NC(=O)NCCC2(C(F)(F)F)CC2)cc1-c1cc(N2CCOCC2)nc(N2CC(N(C)C)C2)n1 [Example 30]
100 to 500	–	> 1000	100 to 500	≤ 100	1000 to 10000	Cc1cc(F)c(NC(=O)NCCC2(C)CC2)cc1-c1nc(NCCO)cc(N2CCOCC2)n1 [Example 31]
